Consider nine substances from patent publication US8178506B2, “Oligomeric compounds and compositions for use in modulation of small non-coding RNAs” (Regulus Therapeutics Inc., priority 2003, dated 2012).

Common to all, as to assay type: cell-based, human
One data set has as its system Glut4. Kind of data set: Glut4 mRNA expression in adipocytes (real-time PCR). Here is the method: (§1) Expression of the four hallmark genes, HSL, aP2, Glut4, and PPARγ, is also measured in adipocytes transfected with oligomeric compounds of the invention. Cells are lysed on day nine post-transfection and total RNA is harvested. The amount of total RNA in each sample is determined using a Ribogreen Assay (Invitrogen Life Technologies, Carlsbad, Calif.).
(§2) For assaying adipocyte differentiation, expression of the four hallmark genes, HSL, aP2, Glut4, and PPARγ, as well as triglyceride (TG) accumulation and leptin secretion were measured in adipocytes transfected with the uniform 2′-MOE phosphorothioate (PS) oligomeric compounds previously described. Cells are lysed on day nine post-transfection, in a guanadinium-containing buffer and total RNA is harvested. Real-time PCR is performed (Applied Biosystems, Prism 7700) on the total RNA using the following primer/probe sets for the adipocyte differentiation hallmark genes: (aP2): forward 5′-GGTGGTGGAATGCGTCATG-3′ (SEQ ID NO: 746), reverse 5′-[…]-3′ (SEQ ID NO: 747), probe 5′-FAM-[…]-TAMRA-3′ (SEQ ID NO: 748); (Glut4): forward 5′-GGCCTCCGCAGGTTCTG-3′ (SEQ ID NO: 749), reverse 5′-[…]-3′ (SEQ ID NO: 750), probe 5′-FAM-[…]-TAMRA-3′ (SEQ ID NO: 751); (HSL): forward 5′-ACCTGCGCACAATGACACA-3′ (SEQ ID NO: 752), reverse 5′-[…]-3′ (SEQ ID NO: 753), probe 5′-FAM-[…]-TAMRA-3′ (SEQ ID NO: 754); (PPAR-γ): forward 5′-[…]-3′ (SEQ ID NO: 755), reverse 5′-[…]-3′ (SEQ ID NO: 756), probe 5′-FAM-[…]-TAMRA-3′ (SEQ ID NO: 757). The amount of total RNA in each sample is determined using a Ribogreen Assay (Molecular Probes, Eugene, Oreg.), and expression levels of the adipocyte differentiation hallmark genes were normalized to total RNA.
Background: In qPCR the cycle at which signal appears reflects the starting amount.

The test system of the next data set is HSL. Kind of data set: HSL mRNA expression in adipocytes (real-time PCR). Here is the method: as §1, §2
A further data set deals with PPARγ. Put plainly: PPARγ mRNA expression in adipocytes (real-time PCR). Here is the method: as §1, §2
Another data set deals with adipocytes. Put plainly: Triglyceride accumulation assay in adipocytes. As for the experimental part: The triglyceride accumulation assay measures the synthesis of triglyceride by adipocytes. Triglyceride accumulation is measured using the Infinity™ Triglyceride reagent kit (Sigma-Aldrich, St. Louis, Mo.). On day nine post-transfection, cells are washed and lysed at room temperature, and the triglyceride assay reagent is added. Triglyceride accumulation is measured based on the amount of glycerol liberated from triglycerides by the enzyme lipoprotein lipase. Liberated glycerol is phosphorylated by glycerol kinase, and hydrogen peroxide is generated during the oxidation of glycerol-1-phosphate to dihydroxyacetone phosphate by glycerol phosphate oxidase. Horseradish peroxidase (HRP) uses H2O2 to oxidize 4-aminoantipyrine and 3,5 dichloro-2-hydroxybenzene sulfonate to produce a red-colored dye. Dye absorbance, which is proportional to the concentration of glycerol, is measured at 515 nm using an UV spectrophotometer. Glycerol concentration is calculated from a standard curve for each assay, and data are normalized to total cellular protein as determined by a Bradford assay (Bio-Rad Laboratories, Hercules, Calif.).
An increase in triglyceride content is another well-established marker for adipocyte differentiation. The triglyceride accumulation assay measures the synthesis of triglyceride by adipocytes. Triglyceride accumulation was measured using the Infinity™ Triglyceride reagent kit (Sigma-Aldrich, St. Louis, Mo.). Human white preadipocytes (Zen-Bio Inc., Research Triangle Park, N.C.) were grown in preadipocyte media (ZenBio Inc.). One day before transfection, 96-well plates were seeded with 3000 cells/well. Cells were transfected according to standard published procedures with 250 nM oligomeric compound in LIPOFECTIN™ (Invitrogen Corporation, Carlsbad, Calif.) (Monia et al., J. Biol. Chem. 1993 268(19):14514-22). Oligomeric compounds were tested in triplicate on each 96-well plate, and the effects of TNF-α, a positive drug control that inhibits adipocyte differentiation, were also measured in triplicate. Negative and transfectant-only controls may be measured up to six times per plate. After the cells have reached confluence (approximately three days), they were exposed to differentiation media (Zen-Bio, Inc.) containing a PPAR-γ agonist, IBMX, dexamethasone, and insulin for three days. Cells were then fed adipocyte media (Zen-Bio, Inc.), which was replaced at 2 to 3 day intervals. […] Triglyceride accumulation was measured based on the amount of glycerol liberated from triglycerides by the enzyme lipoprotein lipase. Liberated glycerol is phosphorylated by glycerol kinase, and hydrogen peroxide is generated during the oxidation of glycerol-1-phosphate to dihydroxyacetone phosphate by glycerol phosphate oxidase. Horseradish peroxidase (HRP) uses H2O2 to oxidize 4-aminoantipyrine and 3,5 dichloro-2-hydroxybenzene sulfonate to produce a red-colored dye. Dye absorbance, which is proportional to the concentration of glycerol, was measured at 515 nm using an UV spectrophotometer. Glycerol concentration was calculated from a standard curve for each assay, and data were normalized to total cellular protein as determined by a Bradford assay (Bio-Rad Laboratories, Hercules, Calif.). Results are expressed as a percent±standard deviation relative to transfectant-only control.

The test system of another data set is aP2. Kind of data set: aP2 mRNA expression in adipocytes (real-time PCR). The note with it: for AP2 mRNA: Table 18, differentiating adipocytes, control = treatment with ISIS 342673; for aP2 mRNA: differentiating adipocytes transfected with oligomeric compound, Table 75. As for the experimental part:
as §1, §2

[1] abbreviates: Table 18, differentiating adipocytes, control = treatment with ISIS 342673.
The mark [2] stands for this setting: differentiating adipocytes transfected with oligomeric compound, Table 75.

In the oligonucleotide strings, read from the 5' end, every base follows the letter of its sugar. An asterisk marks phosphorothioate; unmarked linkages are phosphodiester. Other units and linkages are bracketed, terminal groups are in braces. A string of capitals states the bases alone. e = 2'-O-(2-methoxyethyl) (MOE); [5mC] = 5-methylcytosine

As to “328109 (antisense eA*eA*eA*eG*eA*eA*eG*eT*eA*eT*eA*eT*eG*e[5mC]*eA*eT*eA*eG*eG*eA*eA) [compound 328109]”, the “GLUT4 mRNA” value with Glut4 (setting [1]) is reported as 106.6 percentage of control; in the data set with Glut4 (setting [2]) it was 55 percentage of untreated control (UTC). The figures for the “HSL mRNA” value with HSL (setting [1]) and in the data set with HSL (setting [2]) were 86.9 percentage of control and 62 percentage of untreated control (UTC), respectively. Also, the “PPAR gamma mRNA” value is recorded as 96.1 percentage of control in the data set on PPARγ (setting [1]) and 69 percentage of untreated control (UTC) in the data set on PPARγ (setting [2]). Moreover, the “TG (triglyceride accumulation)” value in the data set with adipocytes (setting [1]) is given as 84.9 percentage of control; in the data set on adipocytes (setting [2]), 23 percentage of untreated control (UTC). The “AP2 mRNA” value in the data set with aP2 is on record as 84.9 percentage of control. For the same substance, the “aP2 mRNA” value in the data set on aP2 is on record as 68 percentage of untreated control (UTC).

Take “344614 (CCAGCAGCACCUGGGGCAGU; all 2'-MOE, all phosphorothioate, methylation of C and T or U not given here) [compound 344614]”: in the data set on Glut4 (setting [2]), the “GLUT4 mRNA” value was 61 percentage of untreated control (UTC). Besides, the “HSL mRNA” value with HSL (setting [2]) is reported as 71 percentage of untreated control (UTC). The “PPAR gamma mRNA” value in the data set with PPARγ (setting [2]) is recorded as 86 percentage of untreated control (UTC). Further, the “TG (triglyceride accumulation)” value in the data set on adipocytes (setting [2]) is recorded as 89 percentage of untreated control (UTC). Also, in the data set with aP2, the “aP2 mRNA” value is given as 78 percentage of untreated control (UTC).

As to “328100 (antisense eA*eA*eT*e[5mC]*eT*e[5mC]*eT*eG*e[5mC]*eA*eG*eG*e[5mC]*eA*eA*eA*eT*eG*eT*eG*eA) [compound 328100]”, the “GLUT4 mRNA” value in the data set on Glut4 (setting [1]) was 74.2 percentage of control; in the data set with Glut4 (setting [2]) it was 39 percentage of untreated control (UTC). Further, the “HSL mRNA” value is on record as 72.0 percentage of control in the data set on HSL (setting [1]) and 49 percentage of untreated control (UTC) in the data set on HSL (setting [2]). For the same substance, the “PPAR gamma mRNA” value is recorded as 66.7 percentage of control in the data set on PPARγ (setting [1]) and 48 percentage of untreated control (UTC) in the data set on PPARγ (setting [2]). For the same substance, the “TG (triglyceride accumulation)” value with adipocytes (setting [1]) is recorded as 71.5 percentage of control; with adipocytes (setting [2]), 20 percentage of untreated control (UTC). In addition, the “AP2 mRNA” value in the data set with aP2 was 61.9 percentage of control. The “aP2 mRNA” value with aP2 is on record as 47 percentage of untreated control (UTC).

As to “346692 (UAAACGGAACCACUAGUGACUUG; all 2'-MOE, all phosphorothioate, methylation of C and T or U not given here) [compound 346692]”, the “GLUT4 mRNA” value in the data set on Glut4 (setting [2]) is given as 11 percentage of untreated control (UTC). Also, the “HSL mRNA” value in the data set with HSL (setting [2]) was 18 percentage of untreated control (UTC). Also, the “PPAR gamma mRNA” value in the data set on PPARγ (setting [2]) is 28 percentage of untreated control (UTC). In the data set on adipocytes (setting [2]), the “TG (triglyceride accumulation)” value is 35 percentage of untreated control (UTC). The “aP2 mRNA” value in the data set with aP2 is 26 percentage of untreated control (UTC).

Turning to “344340 (UGUCCGUGGUUCUACCCUGUGGUA; all 2'-MOE, all phosphorothioate, methylation of C and T or U not given here) [compound 344340]”, in the data set on Glut4 (setting [2]), the “GLUT4 mRNA” value was 16 percentage of untreated control (UTC). The “HSL mRNA” value in the data set with HSL (setting [2]) is reported as 47 percentage of untreated control (UTC). Further, the “PPAR gamma mRNA” value with PPARγ (setting [2]) is recorded as 67 percentage of untreated control (UTC). Besides, the “TG (triglyceride accumulation)” value with adipocytes (setting [2]) is given as 60 percentage of untreated control (UTC). Moreover, in the data set with aP2, the “aP2 mRNA” value is on record as 82 percentage of untreated control (UTC).

With “344343 (AUGCCCUUUCAUCAUUGCACUG; anti-miR; all 2'-MOE, all phosphorothioate, methylation of C and T or U not given here) [compound 344343]”, the “GLUT4 mRNA” value in the data set on Glut4 (setting [2]) is recorded as 4 percentage of untreated control (UTC). Besides, the “HSL mRNA” value in the data set with HSL (setting [2]) is 22 percentage of untreated control (UTC). Moreover, in the data set on PPARγ (setting [2]), the “PPAR gamma mRNA” value was 30 percentage of untreated control (UTC). In the data set on adipocytes (setting [2]), the “TG (triglyceride accumulation)” value is recorded as 32 percentage of untreated control (UTC). Moreover, the “aP2 mRNA” value with aP2 is given as 25 percentage of untreated control (UTC).

“327969 (antisense eT*eG*eT*eG*eA*eG*eT*eT*e[5mC]*eT*eA*e[5mC]*e[5mC]*eA*eT*eT*eG*e[5mC]*e[5mC]*eA*eA*eA) [compound 327969]”: the “GLUT4 mRNA” value is on record as 60.6 percentage of control in the data set with Glut4 (setting [1]) and 36 percentage of untreated control (UTC) in the data set on Glut4 (setting [2]). Also, the “HSL mRNA” value is 66.4 percentage of control in the data set with HSL (setting [1]) and 45 percentage of untreated control (UTC) in the data set on HSL (setting [2]). The “PPAR gamma mRNA” value is 69.2 percentage of control with PPARγ (setting [1]) and 67 percentage of untreated control (UTC) in the data set on PPARγ (setting [2]). Also, the figures for the “TG (triglyceride accumulation)” value in the data set with adipocytes (setting [1]) and in the data set on adipocytes (setting [2]) were 46.0 percentage of control and 34 percentage of untreated control (UTC), respectively. Further, the “AP2 mRNA” value with aP2 is given as 59.8 percentage of control. The “aP2 mRNA” value in the data set with aP2 was 44 percentage of untreated control (UTC).

In the case of “344611 (ACAUUUUUCGUUAUUGCUCUUGA; anti-miR; all 2'-MOE, all phosphorothioate, methylation of C and T or U not given here) [compound 344611]”, in the data set on Glut4 (setting [2]), the “GLUT4 mRNA” value is 3 percentage of untreated control (UTC). Besides, the “HSL mRNA” value with HSL (setting [2]) was 31 percentage of untreated control (UTC). Moreover, the “PPAR gamma mRNA” value with PPARγ (setting [2]) was 34 percentage of untreated control (UTC). The “TG (triglyceride accumulation)” value in the data set on adipocytes (setting [2]) is recorded as 43 percentage of untreated control (UTC). Moreover, the “aP2 mRNA” value in the data set on aP2 was 34 percentage of untreated control (UTC).

Consider “328090 (antisense eA*eT*eT*eA*eA*eA*eA*eA*eG*eT*e[5mC]*e[5mC]*eT*e[5mC]*eT*eT*eG*e[5mC]*e[5mC]*e[5mC]*eA) [compound 328090]”, for which the “GLUT4 mRNA” value in the data set with Glut4 (setting [2]) was 86 percentage of untreated control (UTC). For the same substance, in the data set on HSL (setting [2]), the “HSL mRNA” value was 81 percentage of untreated control (UTC). In addition, the “PPAR gamma mRNA” value in the data set with PPARγ (setting [2]) is listed as 95 percentage of untreated control (UTC). In addition, the “TG (triglyceride accumulation)” value in the data set on adipocytes (setting [2]) is listed as 128 percentage of untreated control (UTC). Further, the “aP2 mRNA” value in the data set with aP2 is listed as 68 percentage of untreated control (UTC).
